# Test results as given in patent US10047075B2, “Pyridines and pyrimidines and use thereof” (Purdue Pharma L.P., priority 2014, dated 2018).
# Like-named read-outs stand apart in the source and are kept apart here.
# Legend:
# hNav1.7 = hNav1.7 (Homo sapiens, UniProt Q15858); assay: Electrophysiology (EP) assay, whole-cell patch clamp, hNav1.7 expressing HEK-293 cells; assay type: cell-based; settings: hNav1.7 HEK-293 cells; affinity for the inactivated state; read-out: Nav1.7 Activity (μM) EP assay Ki
# Experimental: The hNav1.7 expressing HEK-293 cells are plated on 35 mm culture dishes pre-coated with poly-D-lysine in standard DMEM culture media (Mediatech, Inc., Herndon, Va.) and incubated in a 5% CO2 incubator at 37° C. Cultured cells are used approximately 12-48 hours after plating.
# The hNav1.7 expressing HEK-293 cells are plated on tissue culture flasks in standard DMEM culture media (Mediatech, Inc.) and incubated in a 5% CO2 incubator at 37° C. Cultured cells are used approximately 12-48 hours after plating.
# On the day of experimentation, the 35 mm dish is placed on the stage of an inverted microscope equipped with a perfusion system that continuously perfuses the culture dish with fresh recording media. A gravity driven superfusion system is used to apply test solutions directly to the cell under evaluation. This “shooter” system consists of an array of glass pipettes connected to a motorized horizontal translator. The outlet of the shooter is positioned approximately 100 μm from the cell of interest.
# Whole cell currents are recorded using the whole-cell patch clamp configuration using an Axopatch 200B amplifier (Axon Instruments, Foster City Calif.), 1322A A/D converter (Axon Instruments) and pClamp software (v. 8; Axon Instruments) and stored on a personal computer. Gigaseals are formed and the whole-cell configuration is established in voltage clamp mode, and membrane currents generated by hNav1.7 channels are recorded. Borosilicate glass pipettes with resistance values between 1.5 and 2.0 MΩ when filled with pipette solution are used and series resistance (<5 MΩ) is compensated by 75-80%. Signals are sampled at 50 kHz and low pass filtered at 3 kHz.
# Automated Electrophysiology: On the day of experimentation, cells are prepared by removing media and digesting with appropriate enzymes to suspend cells in external solution.
# Whole cell currents are recorded using the whole-cell patch clamp configuration using an Patchliner (Nanion Technologies, Munich Germany), EPC 10 quadro amplifiers (HEKA, Bellmore, N.Y.) and PatchControl HT 10905 (Nanion Technologies) and PatchMaster v2x73 software (HEKA) and stored on a personal computer. Gigaseals are formed and the whole-cell configuration is established in voltage clamp mode, and membrane currents generated by hNav1.7 are recorded. NPC-16 chips have resistance values between 1.0 and 2.0 MΩ when filled with pipette solution and series resistance (<5 MΩ). Signals are sampled at 25 kHz and low pass filtered at 3 kHz.
# After establishing the whole-cell configuration in voltage clamp mode, voltage protocols are run to establish the 1) test potential (Vmax), 2) holding potential (Vh), and 3) the conditioning potential for each cell.
# After establishing the whole-cell configuration in voltage clamp mode, a standard I-V protocol is run to determine the potential at which the maximal current (Imax) is elicited. This potential is the test potential (Vt). To determine a conditioning potential at which 100% of channels are in the inactivated state, a standard steady-state inactivation (SSIN) protocol is run using a series of fifteen 100 ms-long depolarizing prepulses, incrementing in 10 mV steps, immediately followed by a 5 ms testing pulse to Vmax. This protocol also permits determination of the holding potential at which all channels are in the resting state.
# For compounds causing significant retardation of recovery from inactivation, an estimate of the affinity for the inactivated state of the channel (Ki) is generated using the following protocol. From the negative, no residual inactivation, holding potential, the cell is depolarized to the conditioning voltage for 2-5 seconds, returned to the negative holding potential for 10-20 ms to relieve fast inactivation and then depolarized to the test potential for ˜15 ms. This voltage protocol is repeated every 10-15 seconds, first to establish a baseline in the absence of the test compound, then in the presence of the test compound. […]
# human Nav1.7 = human Nav1.7 (Homo sapiens, UniProt Q15858); assay: FLIPR or FLIPR TETRA sodium dye assay with KCl and test article pre-incubation (CoroNa Green, veratridine + scorpion venom); assay type: cell-based
# Nav1.6 = Nav1.6 (Homo sapiens, UniProt Q9UQD0); settings: read-out: TTX IC50; cited from earlier work
# Nav1.2 = Nav1.2 (Homo sapiens, UniProt Q99250); settings: read-out: TTX IC50; cited from earlier work
# Nav1.9 = Nav1.9 (Homo sapiens, UniProt Q9UI33); settings: read-out: TTX IC50; cited from earlier work
# Nav1.1 = Nav1.1 (Homo sapiens, UniProt P35498); settings: read-out: TTX IC50; cited from earlier work
# Nav1.8 = Nav1.8 (Homo sapiens, UniProt Q9Y5Y9); settings: read-out: TTX IC50; cited from earlier work
# Nav1.3 = Nav1.3 (Homo sapiens, UniProt Q9NY46); settings: read-out: TTX IC50; cited from earlier work
# [1] = recombinant human Nav1.7 in HEK293 cells
# hNav1.7, sequence (Q15858 1-1977 isoform Q15858-3): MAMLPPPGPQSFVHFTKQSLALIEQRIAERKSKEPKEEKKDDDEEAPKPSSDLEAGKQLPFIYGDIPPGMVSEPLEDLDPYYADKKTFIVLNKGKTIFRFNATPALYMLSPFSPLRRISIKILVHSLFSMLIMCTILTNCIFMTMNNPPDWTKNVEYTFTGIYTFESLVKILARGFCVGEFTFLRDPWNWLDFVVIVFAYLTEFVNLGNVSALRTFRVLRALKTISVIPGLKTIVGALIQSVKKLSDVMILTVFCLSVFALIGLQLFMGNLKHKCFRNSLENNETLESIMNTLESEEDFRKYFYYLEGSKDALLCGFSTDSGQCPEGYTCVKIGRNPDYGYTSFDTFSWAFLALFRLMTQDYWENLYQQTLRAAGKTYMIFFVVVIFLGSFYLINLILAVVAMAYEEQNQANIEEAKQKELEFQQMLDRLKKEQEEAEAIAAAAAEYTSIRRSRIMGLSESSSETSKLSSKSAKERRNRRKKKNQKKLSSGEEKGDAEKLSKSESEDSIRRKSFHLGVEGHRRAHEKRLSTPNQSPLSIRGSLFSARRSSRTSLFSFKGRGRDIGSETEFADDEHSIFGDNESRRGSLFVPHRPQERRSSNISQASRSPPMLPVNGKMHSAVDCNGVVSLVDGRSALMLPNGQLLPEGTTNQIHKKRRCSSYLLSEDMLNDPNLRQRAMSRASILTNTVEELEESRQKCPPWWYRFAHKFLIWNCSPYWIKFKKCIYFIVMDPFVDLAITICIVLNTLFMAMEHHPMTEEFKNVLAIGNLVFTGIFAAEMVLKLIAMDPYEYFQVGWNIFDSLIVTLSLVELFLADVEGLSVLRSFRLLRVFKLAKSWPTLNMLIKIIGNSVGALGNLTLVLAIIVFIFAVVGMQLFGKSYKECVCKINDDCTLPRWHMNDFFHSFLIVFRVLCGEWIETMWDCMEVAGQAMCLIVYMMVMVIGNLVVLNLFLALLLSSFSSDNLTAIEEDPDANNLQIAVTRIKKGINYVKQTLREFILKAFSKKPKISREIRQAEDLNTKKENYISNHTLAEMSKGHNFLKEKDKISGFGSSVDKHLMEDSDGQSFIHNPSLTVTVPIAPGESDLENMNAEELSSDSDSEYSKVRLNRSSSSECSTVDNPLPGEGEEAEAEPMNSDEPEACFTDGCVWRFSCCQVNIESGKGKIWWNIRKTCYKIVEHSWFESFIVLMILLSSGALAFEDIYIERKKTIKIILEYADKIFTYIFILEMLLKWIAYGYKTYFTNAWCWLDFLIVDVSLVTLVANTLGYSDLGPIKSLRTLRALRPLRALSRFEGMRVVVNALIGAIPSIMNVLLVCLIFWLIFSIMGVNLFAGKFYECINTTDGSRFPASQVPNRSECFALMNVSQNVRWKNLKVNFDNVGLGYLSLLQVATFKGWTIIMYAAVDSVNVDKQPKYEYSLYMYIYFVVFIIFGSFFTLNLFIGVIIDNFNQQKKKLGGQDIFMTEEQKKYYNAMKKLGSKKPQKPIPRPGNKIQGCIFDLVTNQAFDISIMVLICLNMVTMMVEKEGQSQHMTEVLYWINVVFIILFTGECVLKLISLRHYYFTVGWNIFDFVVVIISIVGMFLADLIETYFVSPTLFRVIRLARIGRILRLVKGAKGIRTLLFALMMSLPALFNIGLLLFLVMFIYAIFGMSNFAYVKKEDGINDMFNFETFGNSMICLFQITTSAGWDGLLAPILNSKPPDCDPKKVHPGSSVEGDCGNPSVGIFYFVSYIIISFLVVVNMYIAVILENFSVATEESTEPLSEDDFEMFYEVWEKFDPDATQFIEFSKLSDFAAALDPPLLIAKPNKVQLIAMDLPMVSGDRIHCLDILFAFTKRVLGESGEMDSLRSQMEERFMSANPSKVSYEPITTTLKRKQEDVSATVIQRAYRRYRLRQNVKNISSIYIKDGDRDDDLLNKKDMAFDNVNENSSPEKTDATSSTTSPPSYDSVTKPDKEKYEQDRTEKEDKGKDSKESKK
# human Nav1.7, sequence (Q15858 1-1977 isoform Q15858-3): as above
# Nav1.6, sequence (Q9UQD0 whole entry, looked up): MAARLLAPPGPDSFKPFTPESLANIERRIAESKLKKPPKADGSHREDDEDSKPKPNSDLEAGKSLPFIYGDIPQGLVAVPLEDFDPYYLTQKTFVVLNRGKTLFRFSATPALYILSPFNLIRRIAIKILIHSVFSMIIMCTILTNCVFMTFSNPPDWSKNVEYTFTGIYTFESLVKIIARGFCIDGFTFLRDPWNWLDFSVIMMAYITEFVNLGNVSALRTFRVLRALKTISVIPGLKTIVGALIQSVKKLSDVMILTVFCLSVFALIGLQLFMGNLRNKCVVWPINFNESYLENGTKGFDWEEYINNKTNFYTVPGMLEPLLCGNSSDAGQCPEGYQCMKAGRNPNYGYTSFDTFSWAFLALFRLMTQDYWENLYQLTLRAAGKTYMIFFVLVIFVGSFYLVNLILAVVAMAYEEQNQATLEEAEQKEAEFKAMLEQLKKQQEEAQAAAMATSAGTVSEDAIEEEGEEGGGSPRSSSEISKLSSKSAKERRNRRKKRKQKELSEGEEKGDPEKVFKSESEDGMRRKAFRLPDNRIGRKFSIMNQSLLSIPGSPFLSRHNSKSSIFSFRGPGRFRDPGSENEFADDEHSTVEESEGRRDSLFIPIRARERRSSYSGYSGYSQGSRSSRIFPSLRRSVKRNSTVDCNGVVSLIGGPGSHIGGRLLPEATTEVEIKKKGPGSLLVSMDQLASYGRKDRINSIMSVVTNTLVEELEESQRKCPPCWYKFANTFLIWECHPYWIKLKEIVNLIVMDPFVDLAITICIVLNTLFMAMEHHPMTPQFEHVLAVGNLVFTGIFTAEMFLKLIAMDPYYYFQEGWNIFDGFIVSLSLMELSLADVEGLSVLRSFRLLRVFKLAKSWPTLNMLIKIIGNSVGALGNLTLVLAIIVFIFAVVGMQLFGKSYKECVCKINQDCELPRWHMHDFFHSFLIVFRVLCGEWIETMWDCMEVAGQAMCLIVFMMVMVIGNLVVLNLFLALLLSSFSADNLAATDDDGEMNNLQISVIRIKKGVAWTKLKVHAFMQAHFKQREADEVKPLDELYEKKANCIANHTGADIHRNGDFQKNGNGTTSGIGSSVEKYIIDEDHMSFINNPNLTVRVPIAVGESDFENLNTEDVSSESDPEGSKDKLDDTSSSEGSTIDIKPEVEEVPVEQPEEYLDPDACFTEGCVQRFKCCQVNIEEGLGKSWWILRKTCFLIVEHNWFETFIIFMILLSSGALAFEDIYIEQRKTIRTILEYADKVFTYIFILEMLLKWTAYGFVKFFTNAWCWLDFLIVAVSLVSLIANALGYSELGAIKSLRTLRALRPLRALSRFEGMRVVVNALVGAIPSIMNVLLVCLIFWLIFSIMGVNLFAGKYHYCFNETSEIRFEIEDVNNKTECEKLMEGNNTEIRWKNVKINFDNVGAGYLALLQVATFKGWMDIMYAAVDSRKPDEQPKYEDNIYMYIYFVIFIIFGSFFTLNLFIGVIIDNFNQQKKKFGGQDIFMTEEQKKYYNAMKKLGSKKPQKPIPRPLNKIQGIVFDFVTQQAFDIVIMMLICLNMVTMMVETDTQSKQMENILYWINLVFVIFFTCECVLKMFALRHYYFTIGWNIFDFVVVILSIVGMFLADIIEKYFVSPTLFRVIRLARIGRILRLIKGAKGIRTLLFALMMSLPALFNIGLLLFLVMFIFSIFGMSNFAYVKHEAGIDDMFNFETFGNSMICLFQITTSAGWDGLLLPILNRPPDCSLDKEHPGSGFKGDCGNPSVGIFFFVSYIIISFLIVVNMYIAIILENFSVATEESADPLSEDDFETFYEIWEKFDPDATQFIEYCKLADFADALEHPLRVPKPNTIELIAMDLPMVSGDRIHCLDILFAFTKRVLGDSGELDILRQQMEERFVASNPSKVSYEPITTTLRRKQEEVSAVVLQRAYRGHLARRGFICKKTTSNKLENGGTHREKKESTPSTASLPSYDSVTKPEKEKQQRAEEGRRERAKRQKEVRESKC
Compound,Ki (hNav1.7) [µM],IC50 (human Nav1.7; [1]) [µM],also measured
"CC(C)CN1CCN(S(C)(=O)=O)Cc2cc(-c3cccc([C@H](O)[C@@H](O)C(N)=O)n3)ccc21 [Compound 125, (2R,3S)-2,3-dihydroxy-3-(6-(1-isobutyl-4-(methylsulfonyl)-2,3,4,5-tetrahydro-1H-benzo[e][1,4]diazepin-7-yl)pyridin-2-yl)propanamide]",7.1 ± 2.45,–,–
"C[C@H](Nc1cc(C(N)=O)nc(-c2ccc3c(c2)OCCC3c2ccc(C(F)(F)F)cc2)n1)C(N)=O (stereo partly drawn) [Compound 111, 6-(((S)-1-amino-1-oxopropan-2-yl)amino)-2-(4-(4-(trifluoromethyl)phenyl)chroman-7-yl)pyrimidine-4-carboxamide]",0.459 ± 0.1,0.379 ± 0.044,–
"NC(=O)CN1CCN(c2ccc(C(F)(F)F)cc2)c2ccc(-c3cccc([C@H](O)CO)n3)cc2C1 [Compound 103, (S)-2-(7-(6-(1,2-dihydroxyethyl)pyridin-2-yl)-1-(4-(trifluoromethyl)phenyl)-1,2,3,5-tetrahydro-4H-benzo[e][1,4]diazepin-4-yl)acetamide]",0.299 ± 0.068,–,IC50 (human Nav1.7): 1.05 ± 0.055 µM
"NC1=N[C@H](O)[C@H]2[C@H]3O[C@]4(O)O[C@@H]([C@@H](O)[C@@]2(N1)[C@@H]4O)[C@]3(O)CO [TTX, tetrodotoxin]",–,–,IC50 (Nav1.6): 6 nM; IC50 (Nav1.2): 10 nM; IC50 (Nav1.9): 1000 nM; IC50 (Nav1.1): 10 nM; IC50 (Nav1.8): 50000 nM; IC50 (Nav1.3): 15 nM
"O=C(CO)N1CCN(c2ccc(C(F)(F)F)cc2)c2ccc(-c3cccc([C@H](O)CO)n3)cc2C1 [Compound 99, (S)-1-(7-(6-(1,2-dihydroxyethyl)pyridin-2-yl)-1-(4-(trifluoromethyl)phenyl)-1,2,3,5-tetrahydro-4H-benzo[e][1,4]diazepin-4-yl)-2-hydroxyethan-1-one]",1.23 ± 0.364,0.896 ± 0.186,–
"NC(=O)c1cccc(-c2ccc3c(c2)OCCC3c2ccc(C(F)(F)F)cc2)n1 (stereo not shown) [Compound 110, 6-(4-(4-(trifluoromethyl)-phenyl)chroman-7-yl)-picolinamide]",0.161 ± 0.07,0.142 ± 0.038,–
"OC[C@@H](O)c1cccc(-c2ccc3c(c2)COCCN3c2ccc(C(F)(F)F)cc2)n1 [Compound 62, (S)-1-(6-(1-(4-(trifluoromethyl)phenyl)-1,2,3,5-tetrahydrobenzo[e][1,4]oxazepin-7-yl)pyridin-2-yl)ethane-1,2-diol]",0.458 ± 0.078,0.419 ± 0.058,–
"CC(C)CN1CCN(S(C)(=O)=O)Cc2cc(-c3cccc([C@H](O)CO)n3)ccc21 [Compound 124, (S)-1-(6-(1-isobutyl-4-(methylsulfonyl)-2,3,4,5-tetrahydro-1H-benzo-[e][1,4]diazepin-7-yl)pyridin-2-yl)ethane-1,2-diol]",2.14 ± 0.586,–,–
"CN1CCN(c2ccc(C(F)(F)F)cc2)c2ccc(-c3cccc(C(N)=O)n3)cc2C1 [Compound 85, 6-(4-methyl-1-(4-(trifluoromethyl)phenyl)-2,3,4,5-tetrahydro-1H-benzo[e][1,4]diazepin-7-yl)picolinamide]",0.399 ± 0.2,0.607 ± 0.086,–
"CC(=O)N1CCN(c2ccc(C(F)(F)F)cc2)c2ccc(-c3cccc([C@H](O)CO)n3)cc2C1 [Compound 96, (S)-1-(7-(6-(1,2-dihydroxyethyl)pyridin-2-yl)-1-(4-(trifluoromethyl)phenyl)-1,2,3,5-tetrahydro-4H-benzo[e][1,4]diazepin-4-yl)ethan-1-one]",0.627 ± 0.134,0.662 ± 0.035,–
"NC(=O)N1CCN(c2ccc(C(F)(F)F)cc2)c2ccc(-c3cccc([C@H](O)CO)n3)cc2C1 [Compound 98, (S)-7-(6-(1,2-dihydroxyethyl)pyridin-2-yl)-1-(4-(trifluoromethyl)phenyl)-1,2,3,5-tetrahydro-4H-benzo[e][1,4]diazepin-4-carboxamide]",0.451 ± 0.092,–,IC50 (human Nav1.7): 0.973 ± 0.099 µM
"OC[C@@H](O)c1cccc(-c2ccc3c(c2)CN(CC2CC2)CCN3c2ccc(C(F)(F)F)cc2)n1 [Compound 87, (S)-1-(6-(4-(cyclopropylmethyl)-1-(4-(trifluoromethyl)phenyl)-2,3,4,5-tetrahydro-1H-benzo[e][1,4]diazepin-7-yl)pyridin-2-yl)ethane-1,2-diol]",0.548 ± 0.089,–,IC50 (human Nav1.7): 1.32 ± 0.133 µM
"CC(=O)N1CCN(c2ccc(C(F)(F)F)cc2)c2ccc(-c3cccc(C(N)=O)n3)cc2C1 [Compound 91, 6-(4-acetyl-1-(4-(trifluoromethyl)phenyl)-2,3,4,5-tetrahydro-1H-benzo[e][1,4]diazepin-7-yl)picolinamide]",0.3 ± 0.033,0.375 ± 0.062,–
"C[C@H](Nc1cc(C(N)=O)nc(-c2ccc3c(c2)OCCCN3c2ccc(C(F)(F)F)cc2)n1)C(N)=O [Compound 63, (S)-6-((1-amino-1-oxopropan-2-yl)amino)-2-(5-(4-(trifluoromethyl)phenyl)-2,3,4,5-tetrahydrobenzo[b][1,4]oxazepin-8-yl)pyrimidine-4-carboxamide]",0.344 ± 0.1,0.246 ± 0.029,–
"NC(=O)c1cc(-c2ccc3c(c2)CN(CC2CC2)CCN3c2ccc(C(F)(F)F)cc2)cc([C@H](O)CO)n1 [Compound 123, (S)-4-(4-(cyclopropylmethyl)-1-(4-(trifluoromethyl)phenyl)-2,3,4,5-tetrahydro-1H-benzo[e][1,4]diazepin-7-yl)-6-(1,2-dihydroxyethyl)-picolinamide]",–,9.61 ± 0.339,–
"NC(=O)c1cccc(-c2ccc3c(c2)CNCCN3c2ccc(C(F)(F)F)cc2)n1 [Compound 84, 6-(1-(4-(trifluoromethyl)-phenyl)-2,3,4,5-tetrahydro-1H-benzo[e][1,4]diazepin-7-yl)picolinamide]",–,1.92 ± 0.296,–
"C[C@H](Nc1cc(C(N)=O)nc(-c2ccc3c(c2)CCCCN3C2CCCCC2)n1)C(N)=O [Compound 74, (S)-6-((1-amino-1-oxopropan-2-yl)amino)-2-(1-cyclohexyl-2,3,4,5-tetrahydro-1H-benzo[b]azepin-7-yl)pyrimidine-4-carboxamide]",–,4.88 ± 0.47,–
"N#CCN1CCN(c2ccc(C(F)(F)F)cc2)c2ccc(-c3cccc(C(N)=O)n3)cc2C1 [Compound 102, 6-(4-(cyanomethyl)-1-(4-(trifluoromethyl)phenyl)-2,3,4,5-tetrahydro-1H-benzo[e][1,4]diazepin-7-yl)picolinamide]",–,0.857 ± 0.075,–
"NC(=O)c1cccc(-c2ccc3c(c2)OCCCN3c2ccc(C(F)(F)F)cc2)n1 [Compound 65, 6-(5-(4-(trifluoromethyl)-phenyl)-2,3,4,5-tetrahydrobenzo[b][1,4]oxazepin-8-yl)picolinamide]",–,0.338 ± 0.034,–
"CS(=O)(=O)N1CCN(c2ccc(C(F)(F)F)cc2)c2ccc(-c3cccc([C@H](O)CO)n3)cc2C1 [Compound 95, (S)-1-(6-(4-(methylsulfonyl)-1-(4-(trifluoromethyl)phenyl)-2,3,4,5-tetrahydro-1H-benzo[e][1,4]diazepin-7-yl)pyridin-2-yl)ethane-1,2-diol]",–,–,IC50 (human Nav1.7): 0.469 ± 0.017 µM
"C[C@H](Nc1cc(C(N)=O)nc(-c2ccc3c(c2)OC[C@H](O)[C@H]3c2ccc(C(F)(F)F)cc2)n1)C(N)=O [Compound 71, 6-(((S)-1-amino-1-oxopropan-2-yl)amino)-2-((3R,4S)-3-hydroxy-4-(4-(trifluoromethyl)phenyl)chroman-7-yl)pyrimidine-4-carboxamide]",–,> 20,–
